Assay results reported in US20240307401A1, “TREATMENT OF JAK-INHIBITION-RESPONSIVE DISORDERS WITH PRODRUGS OF JAK INHIBITORS” (SUN PHARMACEEUTICAL INDUSTRIES, INC., priority 2021, published 2024).

Assays:
[1] = In vitro conversion of Compound (I-1d) DBTA salt to CTP-543 under conditions similar to human stomach (0.1N HCl, 37° C.), HPLC analysis; assay type: physicochemical; conditions: for CTP-543 Concentration: 28.5 mg DBTA salt in 250 mL
Description: An in vitro study was conducted to test the conversion of the dibenzoyl-D-tartaric acid (DBTA) salt of Compound (I-1d) (a compound of Formula (I)) to CTP-543 (a compound of Formula (III)) when subjected to biologically-relevant conditions similar to human stomach conditions (0.1N hydrochloric acid, 37° C.).
Study Conditions: At 37° C., 28.5 mg of Compound (I-1d)·DBTA salt (equivalent to 14.6 mg of Compound (I-1d)) was added to 250 mL of 0.1N HCl while stirring. Samples were removed via syringe at 30, 60, 120 and 240 minutes, (times relevant to potential human gastric residence time), then were filtered through a syringe filter and analyzed by HPLC.

[2] = system: patients suffering from alopecia areata; conditions: human clinical trials, at certain doses; cited from earlier work

SMILES | % Conversion to CTP-543 ([1]; 30 min) [%] | CTP-543 Concentration ([1]; 30 min) [mg/mL] | % Conversion to CTP-543 ([1]; 60 min) [%] | CTP-543 Concentration ([1]; 60 min) [mg/mL] | % Conversion to CTP-543 ([1]; 120 min) [%] | CTP-543 Concentration ([1]; 120 min) [mg/mL] | % Conversion to CTP-543 ([1]; 240 min) [%] | CTP-543 Concentration ([1]; 240 min) [mg/mL] | Hair growth in patients suffering from alopecia areata [2]
[2H]C1([2H])C([C@@H](CC#N)n2cc(-c3ncnc(N)c3CC(OC)OC)cn2)C([2H])([2H])C([2H])([2H])C1([2H])[2H] [Compound (I-1d)] | 8 | 0.004 | 10 | 0.005 | 16 | 0.008 | 22 | 0.011 | –
[2H]C1([2H])C([C@@H](CC#N)n2cc(-c3ncnc4[nH]ccc34)cn2)C([2H])([2H])C([2H])([2H])C1([2H])[2H] [CTP-543, (R)-3-(4-(7H-pyrrolo[2,3-d]pyrimidin-4-yl)-1H-pyrazol-1-yl)-3-(cyclopentyl-2,2,3,3,4,4,5,5-d8)propanenitrile] | – | – | – | – | – | – | – | – | shown to stimulate hair growth
